Test results reported in patent US9351998B2, “Methods of nourishing animals” (MariCal, Inc., priority 2008, dated 2016).
Entries after “also recorded” stand apart in the source; their conditions may differ.

Target: T1, mammalian CaSR (Homo sapiens, UniProt P41180)
T1 construct: expressed in transfected cells; host or cells: HEK cells stably expressing the mammalian CaSR
T1 sequence (P41180 20-1078): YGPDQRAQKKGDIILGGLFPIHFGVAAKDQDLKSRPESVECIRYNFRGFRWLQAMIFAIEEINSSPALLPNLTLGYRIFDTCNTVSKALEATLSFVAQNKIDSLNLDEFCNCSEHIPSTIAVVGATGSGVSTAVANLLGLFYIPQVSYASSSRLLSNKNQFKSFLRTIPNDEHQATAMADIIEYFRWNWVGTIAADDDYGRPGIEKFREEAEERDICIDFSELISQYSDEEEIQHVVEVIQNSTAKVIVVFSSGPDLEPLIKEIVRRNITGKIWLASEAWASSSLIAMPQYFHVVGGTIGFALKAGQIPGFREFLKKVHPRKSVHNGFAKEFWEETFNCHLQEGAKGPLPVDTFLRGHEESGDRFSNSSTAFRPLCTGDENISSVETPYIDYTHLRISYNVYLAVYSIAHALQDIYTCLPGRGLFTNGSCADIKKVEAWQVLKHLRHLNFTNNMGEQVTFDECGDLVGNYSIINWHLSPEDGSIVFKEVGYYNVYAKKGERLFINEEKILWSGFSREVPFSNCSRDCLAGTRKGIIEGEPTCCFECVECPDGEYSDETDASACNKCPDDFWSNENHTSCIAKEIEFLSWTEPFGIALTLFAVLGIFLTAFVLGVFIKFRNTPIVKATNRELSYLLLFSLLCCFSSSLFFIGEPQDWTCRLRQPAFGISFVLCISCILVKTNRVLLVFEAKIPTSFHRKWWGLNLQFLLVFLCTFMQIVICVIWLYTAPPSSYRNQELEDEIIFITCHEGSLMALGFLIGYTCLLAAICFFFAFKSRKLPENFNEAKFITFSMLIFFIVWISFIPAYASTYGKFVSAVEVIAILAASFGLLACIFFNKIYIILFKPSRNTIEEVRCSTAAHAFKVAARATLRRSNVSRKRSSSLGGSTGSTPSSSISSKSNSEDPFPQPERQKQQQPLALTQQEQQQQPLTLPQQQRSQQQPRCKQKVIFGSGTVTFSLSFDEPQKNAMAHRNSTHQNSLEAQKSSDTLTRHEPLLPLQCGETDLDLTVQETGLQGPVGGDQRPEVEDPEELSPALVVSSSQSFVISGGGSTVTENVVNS
Experiment: FURA2 ratio imaging fluorimetry of HEK cells stably expressing mammalian CaSR
Type: cell-based
Description: All methods and equipment utilized to perform experiments on HEK cells have been reported previously (Gama, L. and Breitwieser, G. E. 1998. A carboxyl-terminal domain controls the cooperativity for extracellular Ca2+ activation of the human calcium sensing receptor. A study with receptor-green fluorescent protein fusions. J. Biol. Chem. 273, 29712-29718; Bai, M., Quinn, S., Trivedi, S., Kifor, 0., Pearce, S. H., Pollak, M. R., Krapcho, K., Hebert, S. C. and Brown, E. M. 1996. Expression and characterization of inactivating and activating mutations in the human Ca2+o-sensing receptor. J. Biol. Chem. 271, 19537-19544). Untransfected HEK cells or, alternatively, cells transfected and expressing CaSR protein were cultured in Dulbecco's Modified Eagle Medium containing 10% fetal bovine serum and 1% penicillin-streptomycin in 75 cm^2 flasks until they reached confluence. Media was removed from the flasks and cells were loaded by exposure to Loading Buffer (125 mM NaCl, 4 mM KCl, 1.0 mMCaCl2, 1.0 mM MgCl2, 1 mM NaH2PO4, 20 mM HEPES, 1 gm/liter bovine serum albumin, and 1 gm/l glucose, pH ˜7.4, osmolality ˜285) containing 4.1 micromolar FURA2-AM (Molecular Probes Inc. Eugene, Oreg.) for 2 hr. Cells were then scraped from the surface of the flask using a standard cell scraper (Costar 3010, Corning Inc.). Cells were then pelleted from the suspension by low speed centrifugation to remove loading buffer and rinsed twice to remove extracellular FURA2 dye by two sequential suspensions and pelleting steps using low speed centrifugation. Immediately prior to the start of the experiment, cells were resuspended in various experimental buffers for analyses as described below. The Standard Experimental Buffer used for many studies was composed of: 125 mM NaCl, 4 mM KCl, 0.5 mMCaCl2, 0.5 mM MgCl2, 20 mM HEPES, 1 g/l glucose, pH ˜7.4, osmolality ˜285. All other buffers were variations on this basic composition where specific components within the Standard Experimental Buffer were varied while the remaining components were held constant.
Cell suspensions consisting of a total volume of 3 ml were analyzed in a PTI fluorimeter (PTI Model 814 Photomultiplier Detection System equipped with SC-500 Shutter Controller and PTI Driver and Analysis Software) within approximately 20 min after exposure to experimental buffers. Data was acquired using standard ratio image analysis as described previously using a data acquisition rate of 1.3 sec. for 500 or 1000 second intervals.
In selected experiments, the detergent Triton X-100 was added in order to lyse the cells and quantify differences in FURA2 ratio fluorescence. Triton X-100 was added to the cells to obtain a maximal fluorescence signal from the FURA2 for purposes of quantification.
Experiments on HEK cells were performed generally as described in Example 6 herein. […] Subsequent addition of Ca2+ to a final concentration of 5 mM produced an additional response (see FIG. 26A). No response was observed upon addition of 0.025% Mintrex Zn after the addition of experimental buffer (EB) (see FIG. 26B). […] In addition, the magnitude of the CaSR response to 5 mM Ca2+ was diminished by previous addition of Mintrex Zn.
For mammalian CaSR experiments, two individual aliquots from a single pool of HEK cells that stably express the recombinant mammalian CaSR protein were used for ratio imaging fluorimetry assays of CaSR activation generally as described in Example 6 herein. Addition of Ca++ to a final concentration of 2.5 mM produced a CaSR response that was also followed by responses after subsequent additions of 0.025% Zn proteinate followed by Ca++ to a final concentration of 7.5 mM (FIG. 29B). […] There was also a response to a subsequent dose of Ca++ to a final concentration of 7.5 mM (FIG. 29B). In both tracings, the detergent Triton X-100 was added as a final step to lyse the cells.
Experiments on HEK cells were performed generally as described in Example 6 herein. […]

effect of prior modulator on CaSR response to 0.025% Zn Proteinate (1 micromolar MC 0100): increased the response
CaSR response to stepwise additions (after addition of 2.5 mM Ca++ (FIG. 37)): increased responses
effect on Mintrex Zn-induced reduction of CaSR response to 5 mM Ca2+ (previous addition of 1 micromolar MC0100): partially restored
SMILES: COc1cccc([C@@H](C)NCCCc2ccccc2)c1 [MC0100]
effect of prior modulator on CaSR response to 0.025% Mintrex Zn (1 micromolar MC0100 added before Mintrex Zn): responded to 0.025% Mintrex Zn only after the addition of 1 micromolar MC0100
CaSR response to the modulator itself (MC0100 at final 1 micromolar): very small CaSR response; also recorded: did not itself produce a large response
